Assay results reported in ChEMBL document CHEMBL1154426, “In vitro susceptibilities of Mycoplasma putrefaciens field isolates” (2007).
Values after ≈ are worked out from the molar mass of the structure shown.

Assays:
Type in all cases: functional
Mycoplasma putrefaciens [1] = assay: Antimicrobial activity against Mycoplasma putrefaciens KS1 after 24 hrs by twofold serial dilution method
Mycoplasma putrefaciens [2] = assay: Antimicrobial activity against Mycoplasma putrefaciens French isolates after 24 hrs by twofold serial dilution method
Mycoplasma putrefaciens [3] = assay: Antimicrobial activity against Mycoplasma putrefaciens Jordanian isolates after 24 hrs by twofold serial dilution method

Row | Compound | MIC (Mycoplasma putrefaciens [1]; KS1, 24 h) [µg/mL] | MIC50 (Mycoplasma putrefaciens [2]) [µg/mL] | MIC90 (Mycoplasma putrefaciens [2]) [µg/mL] | MIC50 (Mycoplasma putrefaciens [3]) [µg/mL] | MIC90 (Mycoplasma putrefaciens [3]) [µg/mL] | MIC (Mycoplasma putrefaciens [1]) [µg/mL]
1 | O=C(N[C@H](CO)[C@H](O)c1ccc([N+](=O)[O-])cc1)C(Cl)Cl [CHLORAMPHENICOL] | 4 (≈ 12.4 µM) | 4 (≈ 12.4 µM) | 4 (≈ 12.4 µM) | 2 (≈ 6.19 µM) | 4 (≈ 12.4 µM) | 
2 | CN(C)[C@@H]1C(O)=C(C(N)=O)C(=O)[C@@]2(O)C(O)=C3C(=O)c4c(O)ccc(Cl)c4[C@@](C)(O)[C@H]3C[C@@H]12 [CHLORTETRACYCLINE] | 4 (≈ 8.35 µM) | 8 (≈ 16.7 µM) | 16 (≈ 33.4 µM) | 4 (≈ 8.35 µM) | 4 (≈ 8.35 µM) | 
3 | O=C(O)c1cn(C2CC2)c2cc(N3CCNCC3)c(F)cc2c1=O [CIPROFLOXACIN] | 0.25 (≈ 0.754 µM) | 0.25 (≈ 0.754 µM) | 0.5 (≈ 1.51 µM) | 0.25 (≈ 0.754 µM) | 0.25 (≈ 0.754 µM) | 
4 | C[C@H]1c2cccc(O)c2C(=O)C2=C(O)[C@]3(O)C(=O)C(C(N)=O)=C(O)[C@@H](N(C)C)[C@@H]3[C@@H](O)[C@@H]21.O [DOXYCYCLINE] | 0.03 | 0.25 | 2 | 0.125 | 0.25 | 
5 | CCN1CCN(c2cc3c(cc2F)c(=O)c(C(=O)O)cn3C2CC2)CC1 [ENROFLOXACIN] | 0.125 (≈ 0.348 µM) | 0.125 (≈ 0.348 µM) | 0.25 (≈ 0.696 µM) | 0.125 (≈ 0.348 µM) | 0.125 (≈ 0.348 µM) | 
6 | CC[C@H]1OC(=O)[C@H](C)[C@@H](O[C@H]2C[C@@](C)(OC)[C@@H](O)[C@H](C)O2)[C@H](C)[C@@H](O[C@@H]2O[C@H](C)C[C@H](N(C)C)[C@H]2O)[C@](C)(O)C[C@@H](C)C(=O)[C@H](C)[C@@H](O)[C@]1(C)O [ERYTHROMYCIN] | 0.03 (≈ 0.0409 µM) | 0.03 (≈ 0.0409 µM) | 0.125 (≈ 0.17 µM) | 0.03 (≈ 0.0409 µM) | 0.03 (≈ 0.0409 µM) | 
7 | CCC[C@@H]1C[C@@H](C(=O)N[C@@H]([C@H]2O[C@H](SC)[C@H](O)[C@@H](O)[C@H]2O)[C@@H](C)O)N(C)C1 [LINCOMYCIN] | 1 (≈ 2.46 µM) | 1 (≈ 2.46 µM) | 2 (≈ 4.92 µM) | 0.5 (≈ 1.23 µM) | 1 (≈ 2.46 µM) | 
8 | CCn1cc(C(=O)O)c(=O)c2ccc(C)nc21 [NALIDIXIC ACID] | 512 (≈ 2200 µM) | > 256 | > 256 | > 256 | > 256 | 
9 | CCn1cc(C(=O)O)c(=O)c2cc(F)c(N3CCNCC3)cc21 [NORFLOXACIN] | 2 (≈ 6.26 µM) | 2 (≈ 6.26 µM) | 4 (≈ 12.5 µM) | 2 (≈ 6.26 µM) | 2 (≈ 6.26 µM) | 
10 | CN(C)[C@@H]1C(O)=C(C(N)=O)C(=O)[C@@]2(O)C(O)=C3C(=O)c4c(O)cccc4[C@@](C)(O)[C@H]3[C@H](O)[C@@H]12 [OXYTETRACYCLINE] | 0.5 (≈ 1.09 µM) | 1 (≈ 2.17 µM) | 4 (≈ 8.69 µM) | 0.5 (≈ 1.09 µM) | 0.5 (≈ 1.09 µM) | 
11 | CN[C@@H]1[C@H](O)[C@H](NC)[C@H]2O[C@@]3(O)C(=O)C[C@@H](C)O[C@H]3O[C@@H]2[C@H]1O [SPECTINOMYCIN] | 32 (≈ 96.3 µM) | 16 (≈ 48.1 µM) | 16 (≈ 48.1 µM) | 16 (≈ 48.1 µM) | 32 (≈ 96.3 µM) | 
12 | CN[C@@H]1[C@H](O[C@H]2[C@H](O[C@H]3[C@H](O)[C@@H](O)[C@H](N=C(N)N)[C@@H](O)[C@@H]3N=C(N)N)O[C@@H](C)[C@]2(O)C=O)O[C@@H](CO)[C@H](O)[C@H]1O [STREPTOMYCIN] | 64 (≈ 110 µM) | 32 (≈ 55 µM) | 64 (≈ 110 µM) | 32 (≈ 55 µM) | 32 (≈ 55 µM) | 
13 | CC[C@H]1OC(=O)C[C@@H](O)[C@H](C)[C@@H](O[C@@H]2O[C@H](C)[C@@H](O[C@H]3C[C@@](C)(O)[C@@H](O)[C@H](C)O3)[C@H](N(C)C)[C@H]2O)[C@@H](CC=O)C[C@@H](C)C(=O)/C=C/C(C)=C/[C@@H]1CO[C@@H]1O[C@H](C)[C@@H](O)[C@@H](OC)[C@H]1OC [TYLOSIN] | 0.06 (≈ 0.0655 µM) | 0.03 (≈ 0.0327 µM) | 0.06 (≈ 0.0655 µM) | 0.015 (≈ 0.0164 µM) | 0.015 (≈ 0.0164 µM) | 
14 | GENTAMICIN |  | 64 | 64 | 32 | 32 | 64
15 | SPIRAMYCIN |  | 0.25 | 0.5 | 0.125 | 0.25 | 0.25
